Measured values reported in ChEMBL document CHEMBL1140860, “Synthesis and evaluation of dihydroartemisinin and dihydroartemisitene acetal dimers showing anticancer and antiprotozoal activity” (Bioorg Med Chem, 2009).

Columns and labels:
PC-3 = assay: Growth inhibition of human PC3 cells after 48 hrs by sulforhodamine B assay; assay type: functional; conditions: PC-3, 48 h
HL-60 = assay: Growth inhibition of human HL-60(TB) cells after 48 hrs by sulforhodamine B assay; assay type: functional; conditions: HL-60, 48 h
UACC-62 = assay: Growth inhibition of human UACC62 cells after 48 hrs by sulforhodamine B assay; assay type: functional; conditions: UACC-62, 48 h
SK-MEL-2 = assay: Growth inhibition of human SK-MEL-2 cells after 48 hrs by sulforhodamine B assay; assay type: functional; conditions: SK-MEL-2, 48 h
CCRF-CEM = assay: Growth inhibition of human CCRF-CEM cells after 48 hrs by sulforhodamine B assay; assay type: functional
OVCAR-4 = assay: Growth inhibition of human OVCAR4 cells after 48 hrs by sulforhodamine B assay; assay type: functional; conditions: OVCAR-4, 48 h
COLO 205 = assay: Growth inhibition of human COLO205 cells after 48 hrs by sulforhodamine B assay; assay type: functional; conditions: COLO 205, 48 h
SNB-75 = assay: Growth inhibition of human SNB75 cells after 48 hrs by sulforhodamine B assay; assay type: functional; conditions: SNB-75, 48 h
A549 = assay: Growth inhibition of human A549 cells after 48 hrs by sulforhodamine B assay; assay type: functional; conditions: A549, 48 h
OVCAR-5 = assay: Growth inhibition of human OVCAR5 cells after 48 hrs by sulforhodamine B assay; assay type: functional; conditions: OVCAR-5, 48 h
SW-620 = assay: Growth inhibition of human SW620 cells after 48 hrs by sulforhodamine B assay; assay type: functional; conditions: SW-620, 48 h
SN12C = assay: Growth inhibition of human SN12C cells after 48 hrs by sulforhodamine B assay; assay type: functional
[1] = Selectivity index, ratio of TC50 for african green monkey (Cercopithecus aethiops) Vero cells to IC50 for chloroquine-resistant Plasmodium falciparum W2; assay type: toxicity, cell-based
TK-10 = assay: Growth inhibition of human TK10 cells after 48 hrs by sulforhodamine B assay; assay type: functional; conditions: TK-10, 48 h
NCI-H226 = assay: Growth inhibition of human NCI-H226 cells after 48 hrs by sulforhodamine B assay; assay type: functional; conditions: NCI-H226, 48 h
HCT-15 = assay: Growth inhibition of human HCT15 cells after 48 hrs by sulforhodamine B assay; assay type: functional; conditions: HCT-15, 48 h
DU-145 = assay: Growth inhibition of human DU145 cells after 48 hrs by sulforhodamine B assay; assay type: functional; conditions: DU-145, 48 h
NCI-H322M = assay: Growth inhibition of human NCI-H322M cells after 48 hrs by sulforhodamine B assay; assay type: functional
LOX IMVI = assay: Growth inhibition of human LOXIMVI cells after 48 hrs by sulforhodamine B assay; assay type: functional
SF-268 = assay: Growth inhibition of human SF268 cells after 48 hrs by sulforhodamine B assay; assay type: functional; conditions: SF-268, 48 h
786-0 = assay: Growth inhibition of human 786-0 cells after 48 hrs by sulforhodamine B assay; assay type: functional; conditions: 786-0, 48 h
NCI-H522 = assay: Growth inhibition of human NCI-H522 cells after 48 hrs by sulforhodamine B assay; assay type: functional; conditions: NCI-H522, 48 h
UO-31 = assay: Growth inhibition of human UO31 cells after 48 hrs by sulforhodamine B assay; assay type: functional; conditions: UO-31, 48 h
U-251 = assay: Growth inhibition of human U251 cells after 48 hrs by sulforhodamine B assay; assay type: functional; conditions: U-251, 48 h
Malme-3M = assay: Growth inhibition of human MALME-3M cells after 48 hrs by sulforhodamine B assay; assay type: functional
Plasmodium falciparum [2] = assay: Antimalarial activity after 72 hrs against chloroquine-sensitive Plasmodium falciparum D6 infected in erythrocytes by LDH assay; assay type: functional, organism-based; conditions: D6, 72 h
BT-549 = assay: Growth inhibition of human BT549 cells after 48 hrs by sulforhodamine B assay; assay type: functional; conditions: BT-549, 48 h
NCI-H460 = assay: Growth inhibition of human NCI-H460 cells after 48 hrs by sulforhodamine B assay; assay type: functional; conditions: NCI-H460, 48 h
SK-MEL-28 = assay: Growth inhibition of human SK-MEL-28 cells after 48 hrs by sulforhodamine B assay; assay type: functional; conditions: SK-MEL-28, 48 h
IGROV-1 = assay: Growth inhibition of human IGROV1 cells after 48 hrs by sulforhodamine B assay; assay type: functional; conditions: IGROV-1, 48 h
SF-295 = assay: Growth inhibition of human SF295 cells after 48 hrs by sulforhodamine B assay; assay type: functional; conditions: SF-295, 48 h
NCI-H23 = assay: Growth inhibition of human NCI-H23 cells after 48 hrs by sulforhodamine B assay; assay type: functional; conditions: NCI-H23, 48 h
SK-OV-3 = assay: Growth inhibition of human SKOV3 cells after 48 hrs by sulforhodamine B assay; assay type: functional; conditions: SK-OV-3, 48 h
OVCAR-8 = assay: Growth inhibition of human OVCAR8 cells after 48 hrs by sulforhodamine B assay; assay type: functional; conditions: OVCAR-8, 48 h
EKVX = assay: Growth inhibition of human EKVX cells after 48 hrs by sulforhodamine B assay; assay type: functional
[3] = Growth inhibition of human […] cells after 48 hrs by sulforhodamine B assay; assay type: functional
M14 = assay: Growth inhibition of human M14 cells after 48 hrs by sulforhodamine B assay; assay type: functional; conditions: M14, 48 h
KM12 = assay: Growth inhibition of human KM12 cells after 48 hrs by sulforhodamine B assay; assay type: functional; conditions: KM12, 48 h
HOP-92 = assay: Growth inhibition of human HOP92 cells after 48 hrs by sulforhodamine B assay; assay type: functional; conditions: HOP-92, 48 h
[4] = Growth inhibition of human Hs 578T cells after 48 hrs by sulforhodamine B assay; assay type: functional
Plasmodium falciparum [5] = assay: Antimalarial activity after 72 hrs against chloroquine-resistant Plasmodium falciparum W2 infected erythrocytes by LDH assay; assay type: functional, organism-based; conditions: W2, 72 h
MCF7 = assay: Growth inhibition of human MCF7 cells after 48 hrs by sulforhodamine B assay; assay type: functional; conditions: MCF7, 48 h
CAKI-1 = assay: Growth inhibition of human Caki1 cells after 48 hrs by sulforhodamine B assay; assay type: functional; conditions: CAKI-1, 48 h
HCT-116 = assay: Growth inhibition of human HCT116 cells after 48 hrs by sulforhodamine B assay; assay type: functional; conditions: HCT-116, 48 h
SK-MEL-5 = assay: Growth inhibition of human SK-MEL-5 cells after 48 hrs by sulforhodamine B assay; assay type: functional; conditions: SK-MEL-5, 48 h
MDA-N = assay: Growth inhibition of human MDA-N cells after 48 hrs by sulforhodamine B assay; assay type: functional
UACC-257 = assay: Growth inhibition of human UACC257 cells after 48 hrs by sulforhodamine B assay; assay type: functional; conditions: UACC-257, 48 h
SR = assay: Growth inhibition of human SR cells after 48 hrs by sulforhodamine B assay; assay type: functional
HOP-62 = assay: Growth inhibition of human HOP62 cells after 48 hrs by sulforhodamine B assay; assay type: functional; conditions: HOP-62, 48 h
RXF 393 = assay: Growth inhibition of human RXF393 cells after 48 hrs by sulforhodamine B assay; assay type: functional; conditions: RXF 393, 48 h

C[C@H]1[C@@H](OCC(=O)CO[C@H]2O[C@@H]3O[C@@]4(C)CC[C@H]5[C@H](C)CC[C@@H]([C@H]2C)[C@@]35OO4)O[C@@H]2O[C@@]3(C)CC[C@H]4[C@H](C)CC[C@@H]1[C@@]24OO3
GI50 (PC-3): < 10 nM
GI50 (HL-60): < 10 nM
GI50 (UACC-62): < 10 nM
GI50 (SK-MEL-2): 31 nM
GI50 (CCRF-CEM): < 10 nM
GI50 (OVCAR-4): 69 nM
GI50 (COLO 205): < 10 nM
GI50 (SNB-75): 15 nM
GI50 (A549): < 10 nM
GI50 (OVCAR-5): < 10 nM
GI50 (SW-620): < 10 nM
GI50 (SN12C): < 10 nM
selectivity ratio [1]: > 23800
GI50 (TK-10): 278 nM
GI50 (NCI-H226): 331 nM
GI50 (HCT-15): < 10 nM
GI50 (DU-145): 11200 nM
GI50 (NCI-H322M): 8420 nM
GI50 (LOX IMVI): < 10 nM
GI50 (SF-268): 2030 nM
GI50 (786-0): 93 nM
GI50 (NCI-H522): 18 nM
GI50 (UO-31): < 10 nM
GI50 (U-251): < 10 nM
GI50 (Malme-3M): < 10 nM
IC50 (Plasmodium falciparum [2]): 1100 nM
GI50 (BT-549): 290 nM
GI50 (NCI-H460): < 10 nM
GI50 (SK-MEL-28): 11700 nM
GI50 (IGROV-1): 1740 nM
GI50 (SF-295): 7240 nM
GI50 (NCI-H23): < 10 nM
GI50 (SK-OV-3): 15800 nM
GI50 (OVCAR-8): < 10 nM
GI50 (EKVX): 78 nM
GI50 [3]: < 10 nM
GI50 (M14): < 10 nM
GI50 (KM12): < 10 nM
GI50 (HOP-92): 21 nM
GI50 [4]: 16200 nM
IC50 (Plasmodium falciparum [5]): 300 nM
GI50 (MCF7): < 10 nM
GI50 (CAKI-1): 77 nM
GI50 (HCT-116): < 10 nM
GI50 (SK-MEL-5): < 10 nM
GI50 (MDA-N): 26 nM
GI50 (UACC-257): < 10 nM
GI50 (SR): < 10 nM
GI50 (HOP-62): 11900 nM
GI50 (RXF 393): 12600 nM

C[C@H]1[C@@H](OCC(CO[C@H]2O[C@@H]3O[C@@]4(C)CC[C@H]5[C@H](C)CC[C@@H]([C@H]2C)[C@@]35OO4)OC(=O)CCC(=O)O)O[C@@H]2O[C@@]3(C)CC[C@H]4[C@H](C)CC[C@@H]1[C@@]24OO3 (stereo partly specified)
GI50 (PC-3): < 10 nM
GI50 (HL-60): 11 nM
GI50 (UACC-62): 77 nM
GI50 (SK-MEL-2): 5200 nM
GI50 (CCRF-CEM): 78 nM
GI50 (OVCAR-4): 58 nM
GI50 (COLO 205): < 10 nM
GI50 (SNB-75): 22100 nM
GI50 (A549): 69 nM
GI50 (OVCAR-5): < 10 nM
GI50 (SW-620): 29 nM
GI50 (SN12C): 16 nM
GI50 (TK-10): 211 nM
GI50 (NCI-H226): 48 nM
GI50 (HCT-15): < 10 nM
GI50 (NCI-H322M): 10200 nM
GI50 (LOX IMVI): < 10 nM
GI50 (SF-268): 2180 nM
GI50 (786-0): 23 nM
GI50 (NCI-H522): 63 nM
GI50 (UO-31): 355 nM
GI50 (U-251): < 10 nM
GI50 (Malme-3M): 4050 nM
IC50 (Plasmodium falciparum [2]): 1400 nM
GI50 (BT-549): 724 nM
GI50 (NCI-H460): 33 nM
GI50 (SK-MEL-28): 8380 nM
GI50 (IGROV-1): 11100 nM
GI50 (SF-295): 34 nM
GI50 (NCI-H23): 10 nM
GI50 (SK-OV-3): 27200 nM
GI50 (OVCAR-8): 15 nM
GI50 (EKVX): 470 nM
GI50 [3]: < 10 nM
GI50 (M14): < 10 nM
GI50 (KM12): < 10 nM
GI50 (HOP-92): 121 nM
GI50 [4]: 186 nM
IC50 (Plasmodium falciparum [5]): 2100 nM
GI50 (MCF7): < 10 nM
GI50 (CAKI-1): 44 nM
GI50 (HCT-116): < 10 nM
GI50 (SK-MEL-5): 147 nM
GI50 (UACC-257): 46 nM
GI50 (HOP-62): 86 nM
GI50 (RXF 393): < 10 nM
